These antisense oligonucleotides have a phosphorothioate backbone; sugars and methylation of C are not fully specified.
Also: test concentration or dose not given here.

The target in one data set is SMAD7. As to conditions: ASO.
As to AGGAGGCGAGGAGAAAAG, the remaining target (mRNA or protein) (fraction of control) is no less than 1.

AGGCGGCCGGGCAGCAGG registered a remaining target (mRNA or protein) (fraction of control) of no less than 1.

AGTCTGCAGTTGGTTTGA registered a remaining target (mRNA or protein) (fraction of control) of no less than 1.

Take AGTTCGCAGAGTCGGCTA: the remaining target (mRNA or protein) (fraction of control) amounted to 0.68.

For the sequence ATTCAGCTAGGTGATAAC, the remaining target (mRNA or protein) (fraction of control) is no less than 1.

In turn, ATTTCCAATGAGAATGCT came in with a remaining target (mRNA or protein) (fraction of control) of no less than 1.

For the sequence CAATCTTGTGTTTATCTT, the remaining target (mRNA or protein) (fraction of control) is no less than 1.

CCCTCCTCCTCGTCCTCG registered a remaining target (mRNA or protein) (fraction of control) of 0.72.

With CGAACATGACCTCCGCAC, the remaining target (mRNA or protein) (fraction of control) stood at 0.52.

CGACAGCAGCAGCAGCAG gave a remaining target (mRNA or protein) (fraction of control) of 0.82.

CTCCGGCTGCCCCACCCC: the remaining target (mRNA or protein) (fraction of control) is 0.52.

With CTGATCTGCACGGTAAAG, the remaining target (mRNA or protein) (fraction of control) is no less than 1.

As for CTGCCCCTTCTTCCAAAA, the remaining target (mRNA or protein) (fraction of control) was 0.68.

Sequence GAGATCCAGGAGCAGATG showed a remaining target (mRNA or protein) (fraction of control) of 0.78.

GATGGTACCTTGGGTTAT: the remaining target (mRNA or protein) (fraction of control) is 0.94.

In turn, GCCGATTTTGCTCCGCAC returned a remaining target (mRNA or protein) (fraction of control) of 0.78.

Take GCTCAGCTCACGCTCTGT: the remaining target (mRNA or protein) (fraction of control) stood at 0.62.

For GCTGTCCGTCGCCCCTTC, the remaining target (mRNA or protein) (fraction of control) is 0.87.

Turning to GGACATCCCCGCTTGCTG, the remaining target (mRNA or protein) (fraction of control) was no less than 1.

The sequence GGACTTGATGAAGATGGG showed a remaining target (mRNA or protein) (fraction of control) of no less than 1.

As for GGCAAAAGCCATTCCCCT, the remaining target (mRNA or protein) (fraction of control) amounted to 0.72.

For GGCAGCTGCTGATGAACT, the remaining target (mRNA or protein) (fraction of control) was determined as 0.86.

Sequence GTAGAAGAAATGAAAGAA registered a remaining target (mRNA or protein) (fraction of control) of no less than 1.

The sequence GTATGCCACCACGCACCA registered a remaining target (mRNA or protein) (fraction of control) of no less than 1.

Regarding GTTGTCTCCCCATCTGCC, the remaining target (mRNA or protein) (fraction of control) is no less than 1.

TGCATGAAAAGCAAGCAC had a remaining target (mRNA or protein) (fraction of control) of 0.91.

In turn, TGCCCAGGTACTGCCTCT returned a remaining target (mRNA or protein) (fraction of control) of 0.72.

Consider TGCTTGGATTTCTGCTTC, for which the remaining target (mRNA or protein) (fraction of control) was 0.89.

Take TGGACACAGTAGAGCCTC: the remaining target (mRNA or protein) (fraction of control) was no less than 1.

Consider TTGGGACTGCAAACCTCT, for which the remaining target (mRNA or protein) (fraction of control) amounted to 0.91.

A further data set addresses MAP3K1. As to conditions: ASO.
Turning to AATCCTTTTCCAGTTTTCTC, the remaining target (mRNA or protein) (fraction of control) stood at 0.87.

Regarding ACATACTTAGGTAAGGGTTC, the remaining target (mRNA or protein) (fraction of control) is 0.56.

The sequence ACCATTCTTGCAGAACTCAA gave a remaining target (mRNA or protein) (fraction of control) of 0.55.

Take AGTAACCATTCTTGCAGAAC: the remaining target (mRNA or protein) (fraction of control) was no less than 1.

Sequence ATCATGATTTGTCAATCACA returned a remaining target (mRNA or protein) (fraction of control) of 0.62.

As to ATTGGGTACTGTAGTAACCA, the remaining target (mRNA or protein) (fraction of control) worked out at 0.54.

With ATTTCCACCTCATCTGCATA, the remaining target (mRNA or protein) (fraction of control) is 0.44.

CAAGGCTGGAAACATTAATT returned a remaining target (mRNA or protein) (fraction of control) of 0.94.

In the case of CAGAAATGTCCTCTGAACTG, the remaining target (mRNA or protein) (fraction of control) amounted to 0.5.

Sequence CAGTCCGCCCGCTCGCGGCC returned a remaining target (mRNA or protein) (fraction of control) of 0.34.

In turn, CAGTTTTGAAAACACATGGG came in with a remaining target (mRNA or protein) (fraction of control) of no less than 1.

As for CATTCTTGCAGAACTCAAGT, the remaining target (mRNA or protein) (fraction of control) worked out at 0.54.

In turn, CCACCGACTCGGTAAGGTGG yielded a remaining target (mRNA or protein) (fraction of control) of 0.81.

With CCACTGGCCTCGTTCATAGC, the remaining target (mRNA or protein) (fraction of control) turned out to be 0.21.

As for CCCACTCCCCGCTGCGTCCG, the remaining target (mRNA or protein) (fraction of control) was 0.06.

CTGGTGAAGTGAGTGGAAAC: the remaining target (mRNA or protein) (fraction of control) is 0.76.

CTGTAGTAACCATTCTTGCA came in with a remaining target (mRNA or protein) (fraction of control) of 0.4.

In the case of CTGTTCAGTGGCATCATGGC, the remaining target (mRNA or protein) (fraction of control) came to 0.49.

GAATCCCTGAAGTCTATGCT showed a remaining target (mRNA or protein) (fraction of control) of 0.52.

Consider GAGAAAACTTGCGCTGTGTT, for which the remaining target (mRNA or protein) (fraction of control) is 0.37.

As to GCAACCCTTTGAGAGTTTCT, the remaining target (mRNA or protein) (fraction of control) was 0.32.

GCACTAGTTTGGGCTTTTGC: the remaining target (mRNA or protein) (fraction of control) was found to be 0.28.

In turn, GCTCCTCCGCCGCCGCCTGC came in with a remaining target (mRNA or protein) (fraction of control) of 0.27.

For the sequence GGCAGCCGCGCGCGCGCTGC, the remaining target (mRNA or protein) (fraction of control) turned out to be 0.81.

Consider GGGGTACTGTAGTAACCATT, for which the remaining target (mRNA or protein) (fraction of control) is 0.55.

GGTACTGTAGTAACCATTCT registered a remaining target (mRNA or protein) (fraction of control) of 0.53.

GTAGATATCAATGTGGTTCC registered a remaining target (mRNA or protein) (fraction of control) of 0.75.

For the sequence GTAGTAACCATTCTTGCAGA, the remaining target (mRNA or protein) (fraction of control) came out at 0.42.

The sequence GTCTGCCTTTTGTTTGAACC yielded a remaining target (mRNA or protein) (fraction of control) of 0.67.

On to GTTGTCGTTGTAAAGTGTCT, for which the remaining target (mRNA or protein) (fraction of control) came out at 0.45.

For the sequence GTTTCCAGATAGTTGTTGGG, the remaining target (mRNA or protein) (fraction of control) was determined as 0.85.

Take TAACCATTCTTGCAGAACTC: the remaining target (mRNA or protein) (fraction of control) was 0.59.

TACTGTAGTAACCATTCTTG came in with a remaining target (mRNA or protein) (fraction of control) of 0.74.

As for TAGTTGATCTGTATAATTGG, the remaining target (mRNA or protein) (fraction of control) was no less than 1.

TCAGGCAGCTGGTCCAGCTC gave a remaining target (mRNA or protein) (fraction of control) of 0.52.

On to TTCTTGCAGAACTCAAGTAG, for which the remaining target (mRNA or protein) (fraction of control) is no less than 1.

On to TTGTTGAACTAGAAGGTCCT, for which the remaining target (mRNA or protein) (fraction of control) amounted to 0.57.

As to TTGTTGAGCATCCTGTTTCT, the remaining target (mRNA or protein) (fraction of control) turned out to be 0.39.

For the sequence TTGTTTTCAGGACAGTTTCT, the remaining target (mRNA or protein) (fraction of control) was determined as 0.65.

Sequence TTTTGCATACTGAGCTTAGG had a remaining target (mRNA or protein) (fraction of control) of 0.48.

In the next data set the target is PTPN11. The conditions noted are these: ASO.
As to AAACCATCTCCGCGATGTCA, the remaining target (mRNA or protein) (fraction of control) came to 0.41.

For the sequence AAAGAATCAAACCGTTCTCC, the remaining target (mRNA or protein) (fraction of control) worked out at 0.58.

Take AAAGTCATTCACCGTGTTTT: the remaining target (mRNA or protein) (fraction of control) worked out at 0.54.

For AAGAATATCAATCACAATGA, the remaining target (mRNA or protein) (fraction of control) is no less than 1.

In turn, ACACCAGTGATATTTGGGTG registered a remaining target (mRNA or protein) (fraction of control) of no less than 1.

ACATAAACTTTCTTGCGTCT had a remaining target (mRNA or protein) (fraction of control) of 0.88.

As for ACCATCTCCGCGATGTCATG, the remaining target (mRNA or protein) (fraction of control) was found to be 0.33.

ACGGACCCGCTCCTTGCTCA came in with a remaining target (mRNA or protein) (fraction of control) of 0.48.

For AGAGCATACTCATCAGGCCA, the remaining target (mRNA or protein) (fraction of control) was found to be 0.2.

As for ATCTATTTCTGTGCTGAAGT, the remaining target (mRNA or protein) (fraction of control) is 0.66.

As to ATCTGCACAGTTCAGAGGAT, the remaining target (mRNA or protein) (fraction of control) was determined as 0.51.

Sequence ATGCTCTCCTGCTTATGGTG showed a remaining target (mRNA or protein) (fraction of control) of 0.37.

In the case of ATGTCATGTTCCTCCCGCCC, the remaining target (mRNA or protein) (fraction of control) is 0.43.

Take CACGTTTTCATAGACTCTAG: the remaining target (mRNA or protein) (fraction of control) is 0.71.

The values above are taken from the OligoGym collection.
